Data as given in the Deep4Chem optical property database.

Assay: photoluminescence quantum yield (fraction); solvent given as SMILES

Cc1ccc(C)c(C)c1
photoluminescence quantum yield (in C1CCCCC1): 0.41

Cc1ccc(-n2c(-c3ccccc3O)nc(-c3ccccc3O)c2-c2ccccc2O)cc1
photoluminescence quantum yield (in C1CCOC1): 0.55 | photoluminescence quantum yield (in CC(C)O): 0.6 | photoluminescence quantum yield (in CO): 0.54 | photoluminescence quantum yield (in CS(C)=O): 0.31 | photoluminescence quantum yield (in ClC(Cl)Cl): 0.32 | photoluminescence quantum yield (in ClCCl): 0.37

COCCC1=Cc2nc1ccc1[nH]c(cc1CCOC)c1nc(ccc3[nH]c2cc3CCOC)C(CCOC)=C1
photoluminescence quantum yield (in Cc1ccccc1): 0.47

CC1=C(c2ccccc2)C(C)=[N+]2C1=C(c1c(-c3ccccn3)nc3ccccn13)c1c(C)c(-c3ccccc3)c(C)n1[B-]2(F)F
photoluminescence quantum yield (in ClCCl): 0.785

[C-]#[N+]c1ccc(-c2ccc(N)cc2)cc1
photoluminescence quantum yield (in C1CCCCC1): 0.66 | photoluminescence quantum yield (in C1CCOC1): 0.78 | photoluminescence quantum yield (in C1COCCO1): 0.79 | photoluminescence quantum yield (in CC#N): 0.65 | photoluminescence quantum yield (in CC(C)=O): 0.52 | photoluminescence quantum yield (in CCCCCC): 0.76 | photoluminescence quantum yield (in CCOC(C)=O): 0.67 | photoluminescence quantum yield (in CN(C)C=O): 0.78 | photoluminescence quantum yield (in CO): 0.1 | photoluminescence quantum yield (in CS(C)=O): 0.77 | photoluminescence quantum yield (in Cc1ccccc1): 0.68 | photoluminescence quantum yield (in ClC(Cl)Cl): 0.2 | photoluminescence quantum yield (in ClCCl): 0.75 | photoluminescence quantum yield (in O): 0.0088 | photoluminescence quantum yield (in c1ccncc1): 0.06

CC(C)(C)c1ccc2c(c1)c1cc(C(C)(C)C)ccc1n2-c1ccc(N(c2ccc(-c3ccc(-c4ccc(-c5ccc(-c6ccc(N(c7ccc(-n8c9ccc(C(C)(C)C)cc9c9cc(C(C)(C)C)ccc98)cc7)c7ccc(-n8c9ccc(C(C)(C)C)cc9c9cc(C(C)(C)C)ccc98)cc7)cc6)s5)c5nsnc45)s3)cc2)c2ccc(-n3c4ccc(C(C)(C)C)cc4c4cc(C(C)(C)C)ccc43)cc2)cc1
photoluminescence quantum yield (in ClCCl): 0.08

Cc1cccc(-c2cnc3ccc4ccccc4n23)c1
photoluminescence quantum yield (in ClCCl): 0.55

C[Si](C)(C)c1ccc(-c2ccc(-c3ccc(-c4ccc(-c5ccc([Si](C)(C)C)s5)cc4)c4nsnc34)cc2)s1
photoluminescence quantum yield (in C1CCOC1): 0.73

C(/C=C/c1ccc(N(c2ccccc2)c2ccccc2)cc1)=C\c1ccncc1
photoluminescence quantum yield (in C1COCCO1): 0.3 | photoluminescence quantum yield (in CC#N): 0.16 | photoluminescence quantum yield (in CCCCCCC): 0.4 | photoluminescence quantum yield (in CO): 0.02

Cc1ccc(C2C3=C(CCCC3=O)Nc3c2c(=O)oc2ccccc32)cc1 (centres undefined)
photoluminescence quantum yield (in CS(C)=O): 0.83

COc1c(-c2c(OC)c3cccc4ccc5oc(=O)cc2c5c43)c2cc(=O)oc3ccc4cccc1c4c32
photoluminescence quantum yield (in CC1CCCO1): 0.35

N#Cc1cc(C#N)cc(-n2c3ccccc3c3cc(-c4ccc5c(c4)c4ccccc4n5-c4cc(C#N)cc(C#N)c4)ccc32)c1
photoluminescence quantum yield (in Cc1ccccc1): 0.5 | photoluminescence quantum yield (in O=P(c1ccccc1)(c1ccccc1)c1ccccc1Oc1ccccc1P(=O)(c1ccccc1)c1ccccc1): 0.58

COc1ccccc1C1=C2C(C)=CC(C)=[N+]2[B-](F)(F)n2c(C)cc(C)c21
photoluminescence quantum yield (in C1CCOC1): 0.87 | photoluminescence quantum yield (in CC#N): 0.57 | photoluminescence quantum yield (in CC(=O)C(C)(C)C): 0.74 | photoluminescence quantum yield (in CC(C)=O): 0.78 | photoluminescence quantum yield (in CCCCCC): 0.98 | photoluminescence quantum yield (in CCOC(C)=O): 0.76 | photoluminescence quantum yield (in CO): 0.69

N#Cc1ccc(-n2c3ccccc3c3c2c2ccccc2n3-c2ccccc2)cc1
photoluminescence quantum yield (in Cc1ccccc1): 0.143

CC(C)(C)c1ccc2ccc3c(C(C)(C)C)ccc4ccc1c2c43
photoluminescence quantum yield (in CCCCCC): 0.43 | photoluminescence quantum yield (in CO): 0.54 | photoluminescence quantum yield (in ClCCl): 0.34

CCC1=C(C)C2=Cc3cc(I)c(I)n3[B-](F)(F)[N+]2=C1C
photoluminescence quantum yield (in C1CCCCC1): 0.26 | photoluminescence quantum yield (in CC(C)=O): 0.16 | photoluminescence quantum yield (in CCO): 0.2 | photoluminescence quantum yield (in CCOC(C)=O): 0.19 | photoluminescence quantum yield (in CO): 0.17 | photoluminescence quantum yield (in OCC(F)(F)F): 0.12

N#C/C(=C\c1ccc(C#N)cc1)c1nc(-c2ccccc2)cs1
photoluminescence quantum yield (in CC#N): 0.18 | photoluminescence quantum yield (in CCO): 0.18 | photoluminescence quantum yield (in CN(C)C=O): 0.272 | photoluminescence quantum yield (in Cc1ccccc1): 0.098 | photoluminescence quantum yield (in ClCCl): 0.131

COc1ccc(CCNC(=O)c2sc(-c3ccc(-c4cc(-c5ccc(C(C)(C)C)cc5)c(C(=O)NCCc5ccc(OC)c(OC)c5)s4)s3)cc2-c2ccc(C(C)(C)C)cc2)cc1OC
photoluminescence quantum yield (in ClCCl): 0.27

CN(C)c1ccc(C#Cc2ccc3ccc(=O)oc3c2)cc1
photoluminescence quantum yield (in CC#N): 0.009

C[N+]1=C(/C=C/C=C2/N(CCC[N+](C)(C)C)c3ccccc3C2(C)C)C(C)(C)c2ccccc21
photoluminescence quantum yield (in CS(C)=O): 0.08

Cc1cccc2nc3c(=O)n(C)c(=O)nc-3n(C)c12
photoluminescence quantum yield (in CC#N): 0.07

c1ccc2[nH]ccc2c1
photoluminescence quantum yield (in O): 0.93

CC(C)[Si](C#Cc1c2ccccc2c(C#C[Si](C(C)C)(C(C)C)C(C)C)c2nc3cc4c(cc3nc12)C1c2ccccc2C4c2ccccc21)(C(C)C)C(C)C
photoluminescence quantum yield (in CCCCCC): 0.57 | photoluminescence quantum yield (in ClCCl): 0.76
